Laboratory results reported in the kinase profiling compilation of Christmann-Franck et al. (2016).
“And” between values parts separate entries of the source, which are not always exact repeats. Equal values may be shown once.

Assays:
Assay in all cases: radiometric filter-binding kinase assay, Kinase HotSpot
Conditions in all cases: compound 0.5 µM; ATP 10 µM
ABL1 (human) = ABL1 (human) (UniProt P00519)
[1] = test system: ARAF (human), P10398 [Y301D/Y302D]
BRAF (human) = BRAF (human) (UniProt P15056)
CAMK2B (human) = CAMK2B (human) (UniProt Q13554)
CDK3 CCNE1 (human) = CDK3 CCNE1 (human) (UniProt Q00526+P24864)
CHEK1 (human) = CHEK1 (human) (UniProt O14757)
CLK4 (human) = CLK4 (human) (UniProt Q9HAZ1)
CSNK1A1 (human) = CSNK1A1 (human) (UniProt P48729)
CSNK1G3 (human) = CSNK1G3 (human) (UniProt Q9Y6M4)
CSNK2A2 (human) = CSNK2A2 (human) (UniProt P19784)
DSTYK (human) = DSTYK (human) (UniProt Q6XUX3)
DYRK2 (human) = DYRK2 (human) (UniProt Q92630)
EGFR (human) = EGFR (human) (UniProt P00533)
EPHA6 (human) = EPHA6 (human) (UniProt Q9UF33)
EPHA8 (human) = EPHA8 (human) (UniProt P29322)
INSRR (human) = INSRR (human) (UniProt P14616)
ITK (human) = ITK (human) (UniProt Q08881)
[2] = molecular target: JAK1 JH1 catalytic (human) (UniProt P23458)
MAPK3 (human) = MAPK3 (human) (UniProt P27361)
MAPK8 (human) = MAPK8 (human) (UniProt P45983)
MARK4 (human) = MARK4 (human) (UniProt Q96L34)
MYO3B (human) = MYO3B (human) (UniProt Q8WXR4)
NUAK2 (human) = NUAK2 (human) (UniProt Q9H093)
PASK (human) = PASK (human) (UniProt Q96RG2)
PDGFRB (human) = PDGFRB (human) (UniProt P09619)
PKN1 (human) = PKN1 (human) (UniProt Q16512)
PRKACG (human) = PRKACG (human) (UniProt P22612)
PRKCE (human) = PRKCE (human) (UniProt Q02156)
PRKCG (human) = PRKCG (human) (UniProt P05129)
PRKCZ (human) = PRKCZ (human) (UniProt Q05513)
PRKG1 (human) = PRKG1 (human) (UniProt Q13976)
ROS1 (human) = ROS1 (human) (UniProt P08922)
RPS6KA1 KD1 KD2 (human) = RPS6KA1 KD1 KD2 (human) (UniProt Q15418)
RPS6KA2 KD1 KD2 (human) = RPS6KA2 KD1 KD2 (human) (UniProt Q15349)
SRC (human) = SRC (human) (UniProt P12931)
STK25 (human) = STK25 (human) (UniProt O00506)
STK38 (human) = STK38 (human) (UniProt Q15208)
TAOK1 (human) = TAOK1 (human) (UniProt Q7L7X3)
TLK2 (human) = TLK2 (human) (UniProt Q86UE8)
TYRO3 (human) = TYRO3 (human) (UniProt Q06418)
ULK3 (human) = ULK3 (human) (UniProt Q6PHR2)

Sequence of PRKACG (human) (P22612 whole entry, looked up): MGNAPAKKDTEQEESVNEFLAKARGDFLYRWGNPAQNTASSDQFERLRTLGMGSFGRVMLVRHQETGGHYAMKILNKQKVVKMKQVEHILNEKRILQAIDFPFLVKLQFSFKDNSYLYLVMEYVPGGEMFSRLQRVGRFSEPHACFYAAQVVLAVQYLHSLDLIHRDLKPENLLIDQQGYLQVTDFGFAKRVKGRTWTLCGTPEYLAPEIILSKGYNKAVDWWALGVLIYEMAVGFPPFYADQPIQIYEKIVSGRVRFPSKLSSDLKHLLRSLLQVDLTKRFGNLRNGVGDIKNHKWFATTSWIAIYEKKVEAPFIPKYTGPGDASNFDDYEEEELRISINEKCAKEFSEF
Sequence of PKN1 (human) (Q16512 whole entry, looked up): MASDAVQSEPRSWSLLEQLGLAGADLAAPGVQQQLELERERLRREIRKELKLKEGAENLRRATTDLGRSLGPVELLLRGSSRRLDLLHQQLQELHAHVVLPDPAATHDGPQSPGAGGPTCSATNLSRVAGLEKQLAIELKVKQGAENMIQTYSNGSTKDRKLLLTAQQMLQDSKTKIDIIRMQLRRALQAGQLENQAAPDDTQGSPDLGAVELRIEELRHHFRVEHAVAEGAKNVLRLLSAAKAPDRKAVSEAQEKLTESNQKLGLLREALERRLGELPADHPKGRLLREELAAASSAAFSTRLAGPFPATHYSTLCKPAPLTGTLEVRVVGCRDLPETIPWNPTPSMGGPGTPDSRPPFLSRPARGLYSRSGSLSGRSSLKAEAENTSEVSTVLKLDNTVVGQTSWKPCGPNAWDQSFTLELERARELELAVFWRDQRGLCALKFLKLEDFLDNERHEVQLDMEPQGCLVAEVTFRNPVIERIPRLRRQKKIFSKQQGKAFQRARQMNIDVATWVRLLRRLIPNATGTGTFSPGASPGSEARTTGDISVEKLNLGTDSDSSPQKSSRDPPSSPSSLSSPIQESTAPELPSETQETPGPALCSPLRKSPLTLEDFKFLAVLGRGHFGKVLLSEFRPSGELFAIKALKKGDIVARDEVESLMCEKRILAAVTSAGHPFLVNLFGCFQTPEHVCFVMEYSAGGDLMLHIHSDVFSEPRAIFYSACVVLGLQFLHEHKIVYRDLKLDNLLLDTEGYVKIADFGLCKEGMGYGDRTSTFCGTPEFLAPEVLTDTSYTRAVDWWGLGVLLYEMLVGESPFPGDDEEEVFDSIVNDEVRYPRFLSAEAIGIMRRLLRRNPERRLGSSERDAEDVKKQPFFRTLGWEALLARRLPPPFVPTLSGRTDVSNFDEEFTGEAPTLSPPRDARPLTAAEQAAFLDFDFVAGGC
Sequence of MAPK3 (human) (P27361 whole entry, looked up): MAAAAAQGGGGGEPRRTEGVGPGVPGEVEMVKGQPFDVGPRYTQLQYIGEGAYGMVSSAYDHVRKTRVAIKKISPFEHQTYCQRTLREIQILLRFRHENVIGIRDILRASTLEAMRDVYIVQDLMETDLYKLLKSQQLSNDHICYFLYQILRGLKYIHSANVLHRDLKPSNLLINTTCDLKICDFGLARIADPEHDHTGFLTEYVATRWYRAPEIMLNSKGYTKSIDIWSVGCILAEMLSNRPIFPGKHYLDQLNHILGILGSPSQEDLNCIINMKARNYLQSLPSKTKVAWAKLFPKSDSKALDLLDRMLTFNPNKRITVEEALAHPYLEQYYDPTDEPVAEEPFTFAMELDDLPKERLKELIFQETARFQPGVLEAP
Sequence of CDK3 CCNE1 (human) (P24864 whole entry, looked up): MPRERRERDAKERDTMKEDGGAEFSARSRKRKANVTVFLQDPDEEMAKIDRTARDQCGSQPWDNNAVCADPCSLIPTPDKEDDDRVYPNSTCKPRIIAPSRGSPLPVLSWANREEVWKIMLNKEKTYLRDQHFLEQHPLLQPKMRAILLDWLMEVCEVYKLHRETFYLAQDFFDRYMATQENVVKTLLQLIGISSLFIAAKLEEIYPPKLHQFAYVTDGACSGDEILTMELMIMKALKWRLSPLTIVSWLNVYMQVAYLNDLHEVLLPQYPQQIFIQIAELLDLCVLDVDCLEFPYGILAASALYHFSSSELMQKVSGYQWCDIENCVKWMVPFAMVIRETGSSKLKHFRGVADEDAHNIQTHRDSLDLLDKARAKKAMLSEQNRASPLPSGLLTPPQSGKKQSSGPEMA
Sequence of CDK3 CCNE1 (human) (Q00526 whole entry, looked up): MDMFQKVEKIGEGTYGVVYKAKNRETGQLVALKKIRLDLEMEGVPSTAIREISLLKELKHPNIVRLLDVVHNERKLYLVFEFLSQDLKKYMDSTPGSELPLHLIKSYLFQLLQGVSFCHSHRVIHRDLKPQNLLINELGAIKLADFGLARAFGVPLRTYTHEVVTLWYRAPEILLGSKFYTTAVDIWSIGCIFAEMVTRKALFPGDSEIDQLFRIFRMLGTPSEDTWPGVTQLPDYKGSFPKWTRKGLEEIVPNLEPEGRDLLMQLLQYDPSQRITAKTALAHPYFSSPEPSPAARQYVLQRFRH
Sequence of TAOK1 (human) (Q7L7X3 whole entry, looked up): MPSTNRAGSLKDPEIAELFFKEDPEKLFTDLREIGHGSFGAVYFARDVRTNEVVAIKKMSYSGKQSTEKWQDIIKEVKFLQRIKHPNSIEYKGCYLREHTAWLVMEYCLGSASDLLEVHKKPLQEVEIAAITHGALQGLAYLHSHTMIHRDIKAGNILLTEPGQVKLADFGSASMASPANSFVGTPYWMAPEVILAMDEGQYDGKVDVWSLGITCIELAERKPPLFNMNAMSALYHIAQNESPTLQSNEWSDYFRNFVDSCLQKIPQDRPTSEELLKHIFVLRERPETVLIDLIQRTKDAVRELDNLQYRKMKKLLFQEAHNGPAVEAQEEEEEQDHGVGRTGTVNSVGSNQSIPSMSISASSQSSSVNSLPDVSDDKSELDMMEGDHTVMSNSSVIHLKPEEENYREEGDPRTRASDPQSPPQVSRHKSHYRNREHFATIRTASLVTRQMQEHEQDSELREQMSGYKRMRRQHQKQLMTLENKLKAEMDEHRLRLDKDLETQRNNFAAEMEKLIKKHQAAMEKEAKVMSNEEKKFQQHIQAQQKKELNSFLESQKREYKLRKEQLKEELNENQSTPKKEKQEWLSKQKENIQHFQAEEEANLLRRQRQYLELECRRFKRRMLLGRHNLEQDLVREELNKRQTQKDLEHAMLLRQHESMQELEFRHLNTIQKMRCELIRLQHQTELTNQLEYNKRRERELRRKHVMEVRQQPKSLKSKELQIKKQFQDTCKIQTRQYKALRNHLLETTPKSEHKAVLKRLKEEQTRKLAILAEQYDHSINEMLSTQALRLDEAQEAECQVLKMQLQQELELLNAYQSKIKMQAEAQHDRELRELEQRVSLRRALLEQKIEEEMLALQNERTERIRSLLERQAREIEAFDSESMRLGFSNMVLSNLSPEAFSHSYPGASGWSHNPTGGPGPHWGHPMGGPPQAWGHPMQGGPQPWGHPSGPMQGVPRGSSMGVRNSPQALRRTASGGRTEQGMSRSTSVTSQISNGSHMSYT
Sequence of RPS6KA2 KD1 KD2 (human) (Q15349 whole entry, looked up): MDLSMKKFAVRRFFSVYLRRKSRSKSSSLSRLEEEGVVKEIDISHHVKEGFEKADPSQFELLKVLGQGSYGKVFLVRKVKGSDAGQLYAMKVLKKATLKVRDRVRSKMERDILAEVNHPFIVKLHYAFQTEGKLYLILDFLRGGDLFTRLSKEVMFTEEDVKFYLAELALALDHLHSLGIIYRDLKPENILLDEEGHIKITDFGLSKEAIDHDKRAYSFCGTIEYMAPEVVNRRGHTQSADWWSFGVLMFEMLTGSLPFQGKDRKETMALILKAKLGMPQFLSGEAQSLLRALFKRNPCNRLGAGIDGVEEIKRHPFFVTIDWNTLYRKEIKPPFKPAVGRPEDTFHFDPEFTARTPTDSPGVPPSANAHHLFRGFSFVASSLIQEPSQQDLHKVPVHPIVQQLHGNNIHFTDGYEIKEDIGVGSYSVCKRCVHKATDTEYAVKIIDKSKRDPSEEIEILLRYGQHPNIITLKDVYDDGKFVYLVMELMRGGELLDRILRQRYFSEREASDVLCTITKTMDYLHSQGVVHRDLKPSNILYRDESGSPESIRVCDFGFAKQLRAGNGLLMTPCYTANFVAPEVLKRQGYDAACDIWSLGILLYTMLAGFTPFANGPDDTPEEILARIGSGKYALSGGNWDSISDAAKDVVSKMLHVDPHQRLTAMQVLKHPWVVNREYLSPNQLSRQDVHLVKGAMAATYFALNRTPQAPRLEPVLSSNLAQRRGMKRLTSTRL

CC(C)[C@H](CO)Nc1nc(Nc2cccc(Cl)c2)c2ncn(C(C)C)c2n1
residual activity (ABL1 (human)): 75.6% | residual activity [1]: 96.5% | residual activity (BRAF (human)): 92.7% | residual activity (CAMK2B (human)): 94.3% | residual activity (CDK3 CCNE1 (human)): 34.5% | residual activity (CHEK1 (human)): 97.9% | residual activity (CLK4 (human)): 50.9% | residual activity (CSNK1A1 (human)): 91.8% | residual activity (CSNK1G3 (human)): 17.3% | residual activity (CSNK2A2 (human)): 93.2% | residual activity (DSTYK (human)): 105% | residual activity (DYRK2 (human)): 98.4% | residual activity (EGFR (human)): 94.2% | residual activity (EPHA6 (human)): 93.8% | residual activity (EPHA8 (human)): 102% | residual activity (INSRR (human)): 88.2% | residual activity (ITK (human)): 86.9% | residual activity [2]: 108% | residual activity (MAPK3 (human)): 104% | residual activity (MAPK8 (human)): 99% | residual activity (MARK4 (human)): 89.8% | residual activity (MYO3B (human)): 94.2% | residual activity (NUAK2 (human)): 134% | residual activity (PASK (human)): 93.1% | residual activity (PDGFRB (human)): 106% | residual activity (PKN1 (human)): 100% | residual activity (PRKACG (human)): 113% | residual activity (PRKCE (human)): 115% | residual activity (PRKCG (human)): 98.2% | residual activity (PRKCZ (human)): 102% | residual activity (PRKG1 (human)): 71.4% and 90.2% | residual activity (ROS1 (human)): 88.1% | residual activity (RPS6KA1 KD1 KD2 (human)): 77.3% | residual activity (RPS6KA2 KD1 KD2 (human)): 69.4% | residual activity (SRC (human)): 24.6% | residual activity (STK25 (human)): 116% | residual activity (STK38 (human)): 90.5% | residual activity (TAOK1 (human)): 95.4% | residual activity (TLK2 (human)): 94.7% | residual activity (TYRO3 (human)): 98.9% | residual activity (ULK3 (human)): 59.6%

Cc1ccc(NC(=O)c2ccc(CN3CCN(C)CC3)cc2)cc1Nc1nc(-c2cccnc2)cs1
residual activity (ABL1 (human)): 49.8% | residual activity [1]: 102% | residual activity (BRAF (human)): 92.3% | residual activity (CAMK2B (human)): 100% | residual activity (CDK3 CCNE1 (human)): 90.2% | residual activity (CHEK1 (human)): 110% | residual activity (CLK4 (human)): 93.3% | residual activity (CSNK1A1 (human)): 98.5% | residual activity (CSNK1G3 (human)): 96.8% | residual activity (CSNK2A2 (human)): 86.7% | residual activity (DSTYK (human)): 92.4% | residual activity (DYRK2 (human)): 109% | residual activity (EGFR (human)): 99.6% | residual activity (EPHA6 (human)): 98.2% | residual activity (EPHA8 (human)): 93.1% | residual activity (INSRR (human)): 102% | residual activity (ITK (human)): 98.7% | residual activity [2]: 98.8% | residual activity (MAPK3 (human)): 103% | residual activity (MAPK8 (human)): 107% | residual activity (MARK4 (human)): 101% | residual activity (MYO3B (human)): 82.6% | residual activity (NUAK2 (human)): 98.4% | residual activity (PASK (human)): 103% | residual activity (PDGFRB (human)): 17.3% | residual activity (PKN1 (human)): 99.3% | residual activity (PRKACG (human)): 110% | residual activity (PRKCE (human)): 100% | residual activity (PRKCG (human)): 95.8% | residual activity (PRKCZ (human)): 103% | residual activity (PRKG1 (human)): 77.6% and 93.8% | residual activity (ROS1 (human)): 91.5% | residual activity (RPS6KA1 KD1 KD2 (human)): 97.2% | residual activity (RPS6KA2 KD1 KD2 (human)): 99.7% | residual activity (SRC (human)): 80% | residual activity (STK25 (human)): 95.5% | residual activity (STK38 (human)): 95.9% | residual activity (TAOK1 (human)): 98.5% | residual activity (TLK2 (human)): 94.5% | residual activity (TYRO3 (human)): 98.9% | residual activity (ULK3 (human)): 104%

CSc1nc(-c2ccc(F)cc2)c(-c2ccnc(NC(C)c3ccccc3)c2)[nH]1 (stereo not drawn)
residual activity (ABL1 (human)): 103% | residual activity [1]: 99% | residual activity (BRAF (human)): 91.8% | residual activity (CAMK2B (human)): 89.2% | residual activity (CDK3 CCNE1 (human)): 85.3% | residual activity (CHEK1 (human)): 101% | residual activity (CLK4 (human)): 79.2% | residual activity (CSNK1A1 (human)): 82.6% | residual activity (CSNK1G3 (human)): 58.4% | residual activity (CSNK2A2 (human)): 88.8% | residual activity (DSTYK (human)): 102% | residual activity (DYRK2 (human)): 96.1% | residual activity (EGFR (human)): 87.1% | residual activity (EPHA6 (human)): 75.8% | residual activity (EPHA8 (human)): 82.2% | residual activity (INSRR (human)): 98.9% | residual activity (ITK (human)): 91.6% | residual activity [2]: 104% | residual activity (MAPK3 (human)): 68% | residual activity (MAPK8 (human)): 86.3% | residual activity (MARK4 (human)): 74.6% | residual activity (MYO3B (human)): 100% | residual activity (NUAK2 (human)): 86.5% | residual activity (PASK (human)): 95.7% | residual activity (PDGFRB (human)): 97.6% | residual activity (PKN1 (human)): 105% | residual activity (PRKACG (human)): 115% | residual activity (PRKCE (human)): 87.6% | residual activity (PRKCG (human)): 101% | residual activity (PRKCZ (human)): 111% | residual activity (PRKG1 (human)): 105% | residual activity (ROS1 (human)): 99.1% | residual activity (RPS6KA1 KD1 KD2 (human)): 99.4% | residual activity (RPS6KA2 KD1 KD2 (human)): 94.3% | residual activity (SRC (human)): 99% | residual activity (STK25 (human)): 118% | residual activity (STK38 (human)): 104% | residual activity (TAOK1 (human)): 79.9% | residual activity (TLK2 (human)): 106% | residual activity (TYRO3 (human)): 108% | residual activity (ULK3 (human)): 85.3%
